Data on 58 molecules can be found in PubChem BioAssay AID1159560 (GlaxoSmithKline (GSK), 2015).

Active and inactive are the calls of the source. How the calls were made is not given here.

For the assay, the system named is Leishmania donovani growth inhibition. Put plainly: Leishmania donovani growth inhibition (AID 1159560).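 Further: parasites exposed to compound for 72 h before the viability read.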
On to `CCc1ccccc1[C@@H](C)NC(=O)c1cnc2c(cnn2CC)c1NC1CCN(C(N)=O)CC1`, for which the IC50 was > 50 µM (inactive).

Consider `COC(=O)c1ccc(-c2cnc3ccc(NCc4ccccn4)nn23)cc1`, for which the IC50 was 13 µM.

For the molecule `CCC1Oc2cc(S(=O)(=O)N(C)CC(=O)N3CCc4ccccc4C3)c(C)cc2NC1=O` (stereo not drawn), the IC50 was > 50 µM (inactive).

In the case of `Cc1cc2cncn2c(C2CCCCN2C(=O)c2cccs2)n1` (stereo not drawn), the IC50 is 0.4 µM.

`Cc1ccc(CNC2CCN(C[C@@H]3Cn4c(=O)ccc5ccc(=O)n3c54)CC2)cc1F`: the IC50 is > 50 µM (inactive).

In the case of `COc1ccc(C2=NCC(CSc3nnc(-c4ccc5c(c4)OCO5)o3)S2)cc1` (stereo not drawn), the IC50 is 1 µM.

Regarding `Cc1c(C(C)NC(=O)Nc2cccc(Cl)c2)sc2ncnn12` (stereo not drawn), the IC50 is 2 µM.

Turning to `CC(C)(C)C(Cn1ccnc1)NC(=O)c1ccc2nc(C3CC3)oc2c1` (stereo not drawn), the IC50 was 20 µM.

As to `N#Cc1cccc(CN2CCC(c3nc(-c4ccc(C(F)(F)F)nc4)no3)CC2)c1`, the IC50 was 13 µM.

For the molecule `O=C(Nc1nc(-c2ccccn2)cs1)c1ccc(S(=O)(=O)N2CCCCC2)cc1`, the concentration for half-maximal inhibition (IC50) was 0.63 µM.

`CN(Cc1nc2ccc(C(=O)NCC3CCCCC3)cc2[nH]1)C1CCCc2cccnc21` (stereo not drawn): the IC50 was 3.2 µM.

For `N#Cc1ccc(Br)cc1[N+](=O)[O-]`, the IC50 is 7.9 µM.

`CC(C)(C)Nc1nc(-c2ccccn2)nc2ccccc12`: the IC50 was 6.3 µM.

Consider `N#Cc1cc([N+](=O)[O-])ccc1NC1CCCCCC1`, for which the IC50 is > 50 µM (inactive).

As to `COc1ccc(CN(C)Cc2ccncc2)cc1-c1ccc(S(=O)(=O)NC2CCC2)s1`, the IC50 was 40 µM.

As to `NS(=O)(=O)c1ccc(Nc2nccc(-c3cnn4ncccc34)n2)cc1`, the IC50 was 0.79 µM.

For `CC(=O)Nc1ccc(-c2noc(CC3CCCN(Cc4cccc(F)c4C)C3)n2)cc1` (stereo not drawn), the IC50 is 40 µM.

In the case of `CS(=O)(=O)c1ccc(Nc2nccc(Nc3n[nH]c4ccc(F)cc34)n2)c(F)c1`, the IC50 is 13 µM.

In the case of `Cc1cc(C)nc(N2CCC(N(Cc3cccnc3)C(=O)c3cccc(C#N)c3)CC2)n1`, the IC50 was 5 µM.

For the molecule `O=C(CSc1ccc(-c2ccccn2)nn1)Nc1ccc(Cl)cc1`, the IC50 was > 50 µM (inactive).

`Cc1cc(C#N)c([N+](=O)[O-])cc1Br`: the IC50 is 25 µM.

Consider `CNS(=O)(=O)c1ccccc1Nc1nc(Nc2cc(C)nn2C)ncc1Cl`, for which the IC50 was 0.25 µM.

With `O=C(NCc1ccc(Cl)cc1)C1CN(C(=O)c2ccc(F)cc2)CCS1` (stereo not drawn), the IC50 was > 50 µM (inactive).

Consider `CN(C)Cc1cccc(Nc2nccc(-c3ccc(NCCN)c(C#N)c3)n2)c1`, for which the IC50 is 2.5 µM.

`CCc1ccc2nc(NC(=O)c3cc(N4CCOCC4)ccn3)sc2c1`: the IC50 is 2 µM.

Regarding `O=c1ccc2ccc(F)c3c2n1C[C@H]3CN1CCN(CC(O)c2cc3c(cn2)OCS3)CC1` (stereo partly drawn), the IC50 is 20 µM.

Regarding `CC(C)Oc1cccc(N2CCC(C(=O)N3CCCN(C(C)C)CC3)CC2)c1`, the IC50 is > 50 µM (inactive).

With `Cc1ccc(C)c(CN2C(=O)NC3(CCc4ccccc43)C2=O)c1` (stereo not drawn), the IC50 was > 50 µM (inactive).

Turning to `O=C(Nc1nc2cc(Cl)ccc2o1)c1cccc(Cl)c1`, the IC50 is 0.4 µM.

Take `COc1ccc(OC)c2c(=O)c(Cc3ccccc3)c(C)[nH]c12`: the IC50 is 0.4 µM.

As to `O=C(NCCc1csc(-c2ccc(F)cc2)n1)c1ccco1`, the IC50 was > 50 µM (inactive).

On to `CNc1c(C(N)=O)c(-c2ccc3scnc3c2)nn1CC(F)(F)F`, for which the IC50 was > 50 µM (inactive).

Consider `O=C(NC1C(=O)N(c2ccccc2)C1c1cccnc1)c1ccc(Cl)s1` (stereo not drawn), for which the IC50 is 1 µM.

As for `O=C1CN(Cc2ccco2)C2CS(=O)(=O)CC2N1c1ccc(Cl)cc1` (stereo not drawn), the IC50 is > 50 µM (inactive).

With `O=C(NC1CCN(C2Cc3ccc(NS(=O)(=O)c4cc(F)cc(F)c4)cc3C2)CC1)C1CC1` (stereo not drawn), the IC50 is 25 µM.

Regarding `Cc1ccc2c(c1)-c1onc(C(=O)N3CCCCC3c3cccnc3)c1CO2` (stereo not drawn), the IC50 is 32 µM.

Regarding `CC(C)Nc1nc(Cl)nc2ccccc12`, the IC50 was 20 µM.

As to `Cc1ccc(NC(C)C(=O)Nc2ccc(C#N)cc2)cc1S(=O)(=O)N1CCCCC1` (stereo not drawn), the IC50 was 0.79 µM.

For the molecule `O=C1NCc2cccc(Nc3nc(NC4CCC(O)CC4)ncc3Br)c21` (stereo not drawn), the IC50 is 0.79 µM.

In the case of `O=c1[nH]c(NCCCNCc2cc(Br)cc(Br)c2)nc2ccsc12`, the IC50 was 16 µM.

As to `N#Cc1c(Oc2cccc(Cl)c2)cccc1[N+](=O)[O-]`, the IC50 was 7.9 µM.

As for `CC(=O)Nc1cccc(Nc2ncnc3nc[nH]c23)c1`, the IC50 was > 50 µM (inactive).

With `O=C1CN(C2CCCc3c(OCc4ccncc4)cccc32)C(=O)N1C1CCCCC1` (stereo not drawn), the IC50 is > 50 µM (inactive).

`CCOC(=O)c1noc(N)c1-c1ccccc1`: the IC50 is > 50 µM (inactive).

`COc1ccc2ncc(F)c(NC(=O)C3(O)CCC(NCc4ccc5c(c4)OCCO5)CC3)c2n1` (stereo not drawn): the IC50 is 40 µM.

For the molecule `CN(Cc1ccccc1)Cc1nnnn1C1CCN(Cc2ccc(-n3ccnc3)cc2)CC1`, the IC50 is > 50 µM (inactive).

Consider `COc1ccc(C2C3CCCCC3(O)CCN2CC(=O)Nc2ccc(Cl)cc2Cl)cc1` (stereo not drawn), for which the IC50 was 1.6 µM.

`CNc1cncc(C2CCCN2C(=O)Cc2coc3cc(C)ccc23)n1` (stereo not drawn): the IC50 was 3.2 µM.

`O=C(Nc1nc(-c2ccc(S(=O)(=O)N3CCOCC3)cc2)cs1)c1ccc([N+](=O)[O-])cc1`: the IC50 was > 50 µM (inactive).

For `COc1ccc(C2CC(c3ccccc3Cl)=NN2C(=O)CNC(=O)C2CCC2)cc1` (stereo not drawn), the IC50 was > 50 µM (inactive).

In the case of `Cc1nc2c(-c3nc(-c4ccc(N)cc4)n[nH]3)cccn2c1C`, the IC50 is 3.2 µM.

For the molecule `CCn1c(NC(=O)Cc2ccc(F)cc2)nc2ccccc21`, the IC50 was 10 µM.

As for `CNC(=O)Oc1ccc(C(=O)NCc2ccccc2)cc1OC(=O)NC`, the IC50 was > 50 µM (inactive).

For the molecule `Cc1[nH]c2ccccc2c(=O)c1Cc1c(C)[nH]c2ccccc2c1=O`, the IC50 is 20 µM.

Turning to `COc1ccc(S(=O)(=O)Nc2ccccc2OC)cc1NC(=O)CCCc1c[nH]c2ccccc12`, the IC50 was 25 µM.

Regarding `CCCc1cc(C(=O)Nc2ncc(-c3cccc(Br)c3)n2C)n[nH]1`, the half-inhibitory concentration (IC50) was 6.3 µM.

On to `NC(=O)c1ccsc1NC(=O)c1ccc([N+](=O)[O-])s1`, for which the half-inhibitory concentration (IC50) was 0.32 µM.

Consider `CS(=O)(=O)c1ccc(CC(=O)Nc2nc(-c3ccc(Cl)s3)cs2)cc1`, for which the IC50 is > 50 µM (inactive).

What is called IC50 is the concentration at which inhibition is half-maximal.
